The values below come from patent US20220227737A1, “NOVEL OXALYL PIPERAZINES ACTIVE AGAINST THE HEPATITIS B VIRUS (HBV)” (AiCuris GmbH & Co. KG, priority 2019, published 2022).

SMILES strings stand for the structures.

For this test, the target named is T1, C-terminal truncated core protein (HBV core dimer, BODIPY-FL labelled) (UniProt P03146).
T1 construct: fused on or other part: One added cysteine at position 150, labelled with BODIPY-FL maleimide; The C-terminal arginine-rich domain is absent
T1 sequence (P03146 whole entry, the tested form may be a part): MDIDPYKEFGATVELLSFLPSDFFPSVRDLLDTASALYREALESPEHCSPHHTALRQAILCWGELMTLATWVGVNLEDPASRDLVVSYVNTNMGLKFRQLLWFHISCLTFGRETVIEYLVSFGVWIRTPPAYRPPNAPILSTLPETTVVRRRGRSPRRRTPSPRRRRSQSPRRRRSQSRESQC
Put plainly: Biochemical capsid assembly assay (fluorescence quenching). The procedure: Biochemical Capsid Assembly Assay
The screening for assembly effector activity was done based on a fluorescence quenching assay published by Zlotnick et al. (2007). The C-terminal truncated core protein containing 149 amino acids of the N-terminal assembly domain fused to a unique cysteine residue at position 150 and was expressed in E. coli using the pET expression system (Merck Chemicals, Darmstadt). Purification of core dimer protein was performed using a sequence of size exclusion chromatography steps. In brief, the cell pellet from 1 L BL21 (DE3) Rosetta2 culture expressing the coding sequence of core protein cloned NdeI/XhoI into expression plasmid pET21b was treated for 1 h on ice with a native lysis buffer (Qproteome Bacterial Protein Prep Kit; Qiagen, Hilden). After a centrifugation step the supernatant was precipitated during 2 h stirring on ice with 0.23 g/ml of solid ammonium sulfate. Following further centrifugation the resulting pellet was resolved in buffer A (100 mM Tris, pH 7.5; 100 mM NaCl; 2 mM DTT) and was subsequently loaded onto a buffer A equilibrated CaptoCore 700 column (GE HealthCare, Frankfurt). The column flow through containing the assembled HBV capsid was dialyzed against buffer N (50 mM NaHCO3 pH 9.6; 5 mM DTT) before urea was added to a final concentration of 3M to dissociate the capsid into core dimers for 1.5 h on ice. The protein solution was then loaded onto a 1 L Sephacryl 5300 column. After elution with buffer N core dimer containing fractions were identified by SDS-PAGE and subsequently pooled and dialyzed against 50 mM HEPES pH 7.5; 5 mM DTT. To improve the assembly capacity of the purified core dimers a second round of assembly and disassembly starting with the addition of 5 M NaCl and including the size exclusion chromatography steps described above was performed. From the last chromatography step core dimer containing fractions were pooled and stored in aliquots at concentrations between 1.5 to 2.0 mg/ml at −80° C.
Immediately before labelling the core protein was reduced by adding freshly prepared DTT in a final concentration of 20 mM. After 40 min incubation on ice storage buffer and DTT was removed using a Sephadex G-25 column (GE HealthCare, Frankfurt) and 50 mM HEPES, pH 7.5. For labelling 1.6 mg/ml core protein was incubated at 4° C. and darkness overnight with BODIPY-FL maleimide (Invitrogen, Karlsruhe) in a final concentration of 1 mM. After labelling the free dye was removed by an additional desalting step using a Sephadex G-25 column. Labelled core dimers were stored in aliquots at 4° C. In the dimeric state the fluorescence signal of the labelled core protein is high and is quenched during the assembly of the core dimers to high molecular capsid structures. The screening assay was performed in black 384 well microtiter plates in a total assay volume of 10 μl using 50 mM HEPES pH 7.5 and 1.0 to 2.0 μM labelled core protein. Each screening compound was added in 8 different concentrations using a 0.5 log-unit serial dilution starting at a final concentration of 100 μM, 31.6 μM or 10 μM, In any case the DMSO concentration over the entire microtiter plate was 0.5%. The assembly reaction was started by the injection of NaCl to a final concentration of […] which induces the assembly process to approximately 25% of the maximal quenched signal. […] after starting the reaction the fluorescence signal was measured using a Clariostar plate reader (BMG Labtech, Ortenberg) with an excitation of 477 nm and an emission of 525 nm. As 100% and 0% assembly control HEPES buffer containing 2.5 M and 0 M NaCl was used. Experiments were performed thrice in triplicates. EC50 values were calculated by non-linear regression analysis using the Graph Pad Prism 6 software (GraphPad Software, La Jolla, USA).
In general, IC50 refers to the midpoint of a concentration-inhibition curve. `O=C(NCC1(O)CC1)C(=O)N1CCN(C(=O)c2cc3ccccc3[nH]2)CC1` [Example 18, 2-(4-(1H-indole-2-carbonyl)piperazin-1-yl)-N-((1-hydroxycyclopropyl)methyl)-2-oxoacetamide] showed an IC50 below 100 µM.

Turning to `CC(C)(C)NC(=O)C(=O)N1CCN(C(=O)c2cc3cc(F)c(F)cc3[nH]2)CC1` [Example 42, N-tert-butyl-2-[4-(5,6-difluoro-1H-indole-2-carbonyl)piperazin-1-yl]-2-oxoacetamide], the concentration for half-maximal inhibition (IC50) fell in the range of 5 to 10 µM.

For `NC(=O)C1(CNC(=O)C(=O)N2CCN(C(=O)c3cc4ccccc4[nH]3)CC2)CC(F)(F)C1` [Example 21, 1-((2-(4-(1H-indole-2-carbonyl)piperazin-1-yl)-2-oxoacetamido)methyl)-3,3-difluorocyclobutane-1-carboxamide], the IC50 was 5 to 10 µM.

In turn, `CC1(NC(=O)C(=O)N2CCN(C(=O)c3cc4ccccc4[nH]3)CC2)CCCCCC1` [Example 66, 2-[4-(1H-indole-2-carbonyl)piperazin-1-yl]-N-(1-methylcycloheptyl)-2-oxoacetamide] displayed an IC50 of 5 to 10 µM.

`CC1(NC(=O)C(=O)N2CCN(C(=O)c3cc4ccccc4[nH]3)CC2)CCOCC1` [Example 39, 2-(4-(1H-indole-2-carbonyl)piperazin-1-yl)-N-(4-methyltetrahydro-2H-pyran-4-yl)-2-oxoacetamide]: the IC50 was below 5 µM.

As to `CNC(=O)C1(CNC(=O)C(=O)N2CCN(C(=O)c3cc4ccccc4[nH]3)CC2)CCC1` [Example 22, 1-((2-(4-(1H-indole-2-carbonyl)piperazin-1-yl)-2-oxoacetamido)methyl)-N-methylcyclobutane-1-carboxamide], the IC50 is below 100 µM.

The compound `CC(C)(C)NC(=O)C(=O)N1CCN(C(=O)c2cc3cc(F)c(Cl)cc3[nH]2)CC1` [Example 45, N-(tert-butyl)-2-(4-(6-chloro-5-fluoro-1H-indole-2-carbonyl)piperazin-1-yl)-2-oxoacetamide] registered an IC50 of 5 to 10 µM.

Consider `CC(C)(C)NC(=O)C(=O)N1CCN(C(=O)c2cc3c(F)cc(F)cc3[nH]2)CC1` [Example 43, N-(tert-butyl)-2-(4-(4,6-difluoro-1H-indole-2-carbonyl)piperazin-1-yl)-2-oxoacetamide], for which the 50% inhibitory concentration (IC50) was below 5 µM.

In turn, `CC(C)(C)NC(=O)C(=O)N1CCCN(C(=O)c2cc3ccccc3[nH]2)CC1` [Example 51, 2-(4-(1H-indole-2-carbonyl)-1,4-diazepan-1-yl)-N-(tert-butyl)-2-oxoacetamide] gave an IC50 below 100 µM.

The compound `C[C@@H]1CN(C(=O)C(=O)NC(C)(C)C)CCN1C(=O)c1cc2ccccc2[nH]1` [Example 50, (R)-2-(4-(1H-indole-2-carbonyl)-3-methylpiperazin-1-yl)-N-(tert-butyl)-2-oxoacetamide] registered a half-inhibitory concentration (IC50) below 5 µM.

`O=C1CC2(CC(CNC(=O)C(=O)N3CCN(C(=O)c4cc5ccccc5[nH]4)CC3)C2)N1` (stereo not shown) [Example 19, 2-(4-(1H-indole-2-carbonyl)piperazin-1-yl)-2-oxo-N-((2-oxo-1-azaspiro[3.3]heptan-6-yl)methyl)acetamide]: the IC50 is below 100 µM.

Compound `Cc1c(F)ccc2[nH]c(C(=O)N3CCN(C(=O)C(=O)NC(C)(C)C)CC3)cc12` [Example 46, N-(tert-butyl)-2-(4-(5-fluoro-4-methyl-1H-indole-2-carbonyl)piperazin-1-yl)-2-oxoacetamide] had an IC50 of 5 to 10 µM.

Take `Cc1cccc2[nH]c(C(=O)N3CCN(C(=O)C(=O)NC(C)(C)C)CC3)cc12` [Example 44, N-(tert-butyl)-2-(4-(4-methyl-1H-indole-2-carbonyl)piperazin-1-yl)-2-oxoacetamide]: the IC50 is below 5 µM.

`CC(C)(CC(F)(F)F)NC(=O)C(=O)N1CCN(C(=O)c2cc3ccccc3[nH]2)CC1` [Example 69, 2-[4-(1H-indole-2-carbonyl)piperazin-1-yl]-2-oxo-N-(4,4,4-trifluoro-2-methylbutan-2-yl)acetamide] showed a 50% inhibitory concentration (IC50) below 5 µM.

`O=C(NC1CCOCC1)C(=O)N1CCN(C(=O)c2cc3ccccc3[nH]2)CC1` [Example 40, 2-(4-(1H-indole-2-carbonyl)piperazin-1-yl)-2-oxo-N-(tetrahydro-2H-pyran-4-yl)acetamide] displayed an IC50 of 5 to 10 µM.

Take `COCC1(NC(=O)C(=O)N2CCN(C(=O)c3cc4ccccc4[nH]3)CC2)CCC1` [Example 41, 2-(4-(1H-indole-2-carbonyl)piperazin-1-yl)-N-(1-(methoxymethyl)cyclobutyl)-2-oxoacetamide]: the IC50 is below 5 µM.

On to `O=C(N[C@H]1C[C@H](O)C1)C(=O)N1CCN(C(=O)c2cc3ccccc3[nH]2)CC1` [Example 17, 2-(4-(1H-indole-2-carbonyl)piperazin-1-yl)-N-((1 r,3 r)-3-hydroxycyclobutyl)-2-oxoacetamide], for which the IC50 lay in the range of 5 to 10 µM.

`CC(C)(CCCO)NC(=O)C(=O)N1CCN(C(=O)c2cc3ccccc3[nH]2)CC1` [Example 68, N-(5-hydroxy-2-methylpentan-2-yl)-2-[4-(1H-indole-2-carbonyl)piperazin-1-yl]-2-oxoacetamide] had an IC50 below 5 µM.

Consider `C[C@H]1CN(C(=O)C(=O)NC(C)(C)C)CCN1C(=O)c1cc2ccccc2[nH]1` [Example 49, (S)-2-(4-(1H-indole-2-carbonyl)-3-methylpiperazin-1-yl)-N-(tert-butyl)-2-oxoacetamide], for which the concentration for half-maximal inhibition (IC50) was below 100 µM.

Regarding `C#CCNC(=O)C(=O)N1CCN(C(=O)c2cc3ccccc3[nH]2)CC1` [Example 15, 2-(4-(1H-indole-2-carbonyl)piperazin-1-yl)-2-oxo-N-(prop-2-yn-1-yl)acetamide], the IC50 was below 5 µM.

For the compound `NC(=O)C1(CNC(=O)C(=O)N2CCN(C(=O)c3cc4ccccc4[nH]3)CC2)CCC1` [Example 20, 1-((2-(4-(1H-indole-2-carbonyl)piperazin-1-yl)-2-oxoacetamido)methyl)cyclobutane-1-carboxamide], the IC50 was below 100 µM.

`O=C(N[C@H]1CC[C@H](O)CC1)C(=O)N1CCN(C(=O)c2cc3ccccc3[nH]2)CC1` [Example 33, 2-(4-(1H-indole-2-carbonyl)piperazin-1-yl)-N-((1r,4r)-4-hydroxycyclohexyl)-2-oxoacetamide]: the IC50 was below 100 µM.

Turning to `C[C@H](NC(=O)C(=O)N1CCN(C(=O)c2cc3ccccc3[nH]2)CC1)C(F)(F)F` [Example 37, 2-[4-(1H-indole-2-carbonyl)piperazin-1-yl]-2-oxo-N-[(2S)-1,1,1-trifluoropropan-2-yl]acetamide], the IC50 was below 5 µM.

As for `CCCCNC(=O)C(=O)N1CCN(C(=O)c2cc3cc(F)ccc3[nH]2)CC1` [Example 27, N-butyl-2-(4-(5-fluoro-1H-indole-2-carbonyl)piperazin-1-yl)-2-oxoacetamide], the IC50 was below 5 µM.

The compound `CCC(C)(C)NC(=O)C(=O)N1CCN(C(=O)c2cc3ccccc3[nH]2)CC1` [Example 67, 2-[4-(1H-indole-2-carbonyl)piperazin-1-yl]-N-(2-methylbutan-2-yl)-2-oxoacetamide] gave an IC50 below 5 µM.

Consider `O=C(N[C@H]1CC[C@@H](O)CC1)C(=O)N1CCN(C(=O)c2cc3ccccc3[nH]2)CC1` [Example 16, 2-(4-(1H-indole-2-carbonyl)piperazin-1-yl)-N-((1s,4s)-4-hydroxycyclohexyl)-2-oxoacetamide], for which the IC50 lay within 5 to 10 µM.

In turn, `O=C(NC1CCCCCC1)C(=O)N1CCN(C(=O)c2cc3ccccc3[nH]2)CC1` [Example 70, N-cycloheptyl-2-[4-(1H-indole-2-carbonyl)piperazin-1-yl]-2-oxoacetamide] had an IC50 of 5 to 10 µM.

On to `C[C@@H](NC(=O)C(=O)N1CCN(C(=O)c2cc3ccccc3[nH]2)CC1)C(F)(F)F` [Example 38, (R)-2-(4-(1H-indole-2-carbonyl)piperazin-1-yl)-2-oxo-N-(1,1,1-trifluoropropan-2-yl)acetamide], for which the IC50 was below 5 µM.
